According to patent US4833241A, “Anthracycline compound” (Kirin Beer Kabushiki Kaisha, priority 1986, dated 1989):
Where two headings read alike, the source gives them in different places.

Assays:
P388 leukemia = assay: Antitumor activity in CDF1 mice with intraperitoneally transplanted P388 leukemia, i.v. administration, 30-day survival; assay type: in vivo; conditions: for Increase in life span T/C (%): days 1 and 5, saline control = 100%; for ED (T/C 130%): Mus musculus, 720 h
in vivo = conditions: mouse, iv
[1] = Stability of M-R20X3 during measurements (1) through (4); assay type: physicochemical

COc1cccc2c1C(=O)c1c(O)c3c(c(O)c1C2=O)C[C@@](O)(C(=O)CO)C[C@@H]3O[C@H]1C[C@H](N)[C@H](O)[C@H](C)O1 [Adriamycin, reference compound]
Increase in life span T/C (%) (P388 leukemia; 1 mg/kg/day i.v.): 103%
Increase in life span T/C (%) (P388 leukemia; 2 mg/kg/day i.v.): 119%
Increase in life span T/C (%) (P388 leukemia; 4 mg/kg/day i.v.): 133%
Increase in life span T/C (%) (P388 leukemia; 8 mg/kg/day i.v.): 165%
Increase in life span T/C (%) (P388 leukemia; 12 mg/kg/day i.v.): 244%

CC[C@@]1(O)C[C@H](O[C@H]2C[C@H](N3CCOCC3)[C@H](O)[C@H](C)O2)c2c(O)c3c(c(O)c2C1O)C(=O)c1cccc(O)c1C3=O (some centres unmarked) [M-R20X2, 3'-deamino-3'-(4-morpholinyl)-13-deoxo-10-hydroxycarminomycin]
ED (T/C 130%) (P388 leukemia; P388, iv, read-out: Dose for T/C = 130% (mg/kg/day)): 0.43 mg/kg/day
Therapeutic index (P388 leukemia; mouse, in vivo, iv): 4.7
Solubility (soluble in) (acidic water, basic water, methanol, ethanol, propanol, acetone, ethyl acetate, and chloroform): Soluble
Solubility (insoluble in) (water, hexane, cyclohexane, diethyl ether, and petroleum ether): Insoluble
LD50 (in vivo): 3.55 mg/kg

CC[C@@]1(O)C[C@H](O[C@H]2C[C@H](N3CCOCC3)[C@H](O)[C@H](C)O2)c2c(O)c3c(c(O)c2[C@H]1C(=O)O)C(=O)c1cccc(O)c1C3=O [M-R20X3, 3'-deamino-3'-(4-morpholinyl)-13-deoxo-10-hydroxycarbonylcarminomycin]
Stability (lability) [1]: extremely labile
Decomposition after completion of the measurements ([1]; measurements (1) through (4) carried out quickly): no decomposition was observed

CC[C@]1(O)Cc2c(O)c3c(c(O)c2[C@@H](O[C@H]2C[C@H](N4CCOCC4)[C@H](O)[C@H](C)O2)C1)C(=O)c1c(O)cccc1C3=O [M-R20X, 3'-deamino-3'-(4-morpholinyl)-13-deoxocarminomycin]
ED (T/C 130%) (P388 leukemia; iv, i.v., P388 leukemia in CDF1 mice, read-out: Dose for T/C = 130%): 2.5 mg/kg/day
LD50 (in vivo): 12.3 mg/kg
